Reference: PubChem BioAssay AID1963434 (Molecular Pharmacology Branch, DTP, NCI, 2024)
Values belong to the molecule of their own block, whether it stands above or below them.

System: 755483-174-R-J1-PDC complex spheroid growth, percent test/control
Assay: Anticancer human tumor 755483-174-R-J1-PDC patient-derived rhabdomyosarcoma cell line growth inhibition [Asc]
Details: for IC50: curve of first compound; for viability, T/C: stronger effect = lower value
Summary of the method: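 Tumor cells were grown as multicellular spheroids with stromal HUVEC and mesenchymal stem cells and treated singly or in combination. Concentrations fell in half-log steps from the clinical Cmax, or from 10 microM where none was known.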
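Further: spheroids exposed to compounds for seven days before readout.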

IC50 (second compound 0.1 µM): 1200 nM
IC50 (second compound 0.316 µM): 1280 nM
IC50 (second compound 1 µM): < 31.6 nM
IC50 (second compound 3.16 µM): < 31.6 nM
IC50 (second compound 10 µM): < 31.6 nM
Compound: C#Cc1c(F)ccc2cc(O)cc(-c3ncc4c(N5CC6CCC(C5)N6)nc(OCC56CCCN5CC(F)C6)nc4c3F)c12 (stereo not given) + Cc1c(S(C)(=O)=O)c(-c2cc(F)cc(N3CCN(c4ccc(NS(=O)(=O)c5ccc(NC(CCN6CCC(C(=O)OCCCP(=O)(O)O)CC6)CSc6ccccc6)c(S(=O)(=O)C(F)(F)F)c5)cc4)CC3)c2)c(-c2ccc(Cl)cc2)n1C(C)C
viability, T/C (second compound 0.1 µM, first compound 0.0316 µM): 60.1%
viability, T/C (second compound 0.1 µM, first compound 0.1 µM): 65.8%
viability, T/C (second compound 0.1 µM, first compound 0.316 µM): 67.2%
viability, T/C (second compound 0.1 µM, first compound 1 µM): 47.9%
viability, T/C (second compound 0.1 µM, first compound 3.16 µM): 36.6%
viability, T/C (second compound 0.1 µM, first compound 10 µM): 12.6%
viability, T/C (second compound 0.316 µM, first compound 0.0316 µM): 49%
viability, T/C (second compound 0.316 µM, first compound 0.1 µM): 63.5%
viability, T/C (second compound 0.316 µM, first compound 0.316 µM): 47.6%
viability, T/C (second compound 0.316 µM, first compound 1 µM): 55.4%
viability, T/C (second compound 0.316 µM, first compound 3.16 µM): 35.8%
viability, T/C (second compound 0.316 µM, first compound 10 µM): 10.3%
viability, T/C (second compound 1 µM, first compound 0.0316 µM): 44.9%
viability, T/C (second compound 1 µM, first compound 0.1 µM): 49.5%
viability, T/C (second compound 1 µM, first compound 0.316 µM): 39.1%
viability, T/C (second compound 1 µM, first compound 1 µM): 39.1%
viability, T/C (second compound 1 µM, first compound 3.16 µM): 27.3%
viability, T/C (second compound 1 µM, first compound 10 µM): 5.81%
viability, T/C (second compound 3.16 µM, first compound 0.0316 µM): 42.3%
viability, T/C (second compound 3.16 µM, first compound 0.1 µM): 36.8%
viability, T/C (second compound 3.16 µM, first compound 0.316 µM): 41.5%
viability, T/C (second compound 3.16 µM, first compound 1 µM): 33.6%
viability, T/C (second compound 3.16 µM, first compound 3.16 µM): 23.8%
viability, T/C (second compound 3.16 µM, first compound 10 µM): 4.86%
viability, T/C (second compound 10 µM, first compound 0.0316 µM): 37.9%
viability, T/C (second compound 10 µM, first compound 0.1 µM): 35.3%
viability, T/C (second compound 10 µM, first compound 0.316 µM): 45.4%
viability, T/C (second compound 10 µM, first compound 1 µM): 35.9%
viability, T/C (second compound 10 µM, first compound 3.16 µM): 20.8%
viability, T/C (second compound 10 µM, first compound 10 µM): 17.5%

IC50 (second compound 0.1 µM): < 9.49 nM
IC50 (second compound 0.316 µM): < 9.49 nM
IC50 (second compound 1 µM): < 9.49 nM
IC50 (second compound 3.16 µM): < 9.49 nM
IC50 (second compound 10 µM): < 9.49 nM
Compound: Cc1nc(N2CCC3(CC2)COC(C)C3N)c(CO)nc1Sc1ccnc(N)c1Cl (stereo not given) + Cc1c(S(C)(=O)=O)c(-c2cc(F)cc(N3CCN(c4ccc(NS(=O)(=O)c5ccc(NC(CCN6CCC(C(=O)OCCCP(=O)(O)O)CC6)CSc6ccccc6)c(S(=O)(=O)C(F)(F)F)c5)cc4)CC3)c2)c(-c2ccc(Cl)cc2)n1C(C)C
viability, T/C (second compound 0.1 µM, first compound 0.00949 µM): 49.6%
viability, T/C (second compound 0.1 µM, first compound 0.03 µM): 46.2%
viability, T/C (second compound 0.1 µM, first compound 0.0949 µM): 40.3%
viability, T/C (second compound 0.1 µM, first compound 0.3 µM): 26.5%
viability, T/C (second compound 0.1 µM, first compound 0.949 µM): 14.2%
viability, T/C (second compound 0.1 µM, first compound 3 µM): 13.8%
viability, T/C (second compound 0.316 µM, first compound 0.00949 µM): 42.4%
viability, T/C (second compound 0.316 µM, first compound 0.03 µM): 43.5%
viability, T/C (second compound 0.316 µM, first compound 0.0949 µM): 34.6%
viability, T/C (second compound 0.316 µM, first compound 0.3 µM): 23%
viability, T/C (second compound 0.316 µM, first compound 0.949 µM): 12.7%
viability, T/C (second compound 0.316 µM, first compound 3 µM): 9.74%
viability, T/C (second compound 1 µM, first compound 0.00949 µM): 33.5%
viability, T/C (second compound 1 µM, first compound 0.03 µM): 33.9%
viability, T/C (second compound 1 µM, first compound 0.0949 µM): 38.6%
viability, T/C (second compound 1 µM, first compound 0.3 µM): 21.9%
viability, T/C (second compound 1 µM, first compound 0.949 µM): 17.7%
viability, T/C (second compound 1 µM, first compound 3 µM): 10.4%
viability, T/C (second compound 3.16 µM, first compound 0.00949 µM): 26.5%
viability, T/C (second compound 3.16 µM, first compound 0.03 µM): 47.5%
viability, T/C (second compound 3.16 µM, first compound 0.0949 µM): 26.4%
viability, T/C (second compound 3.16 µM, first compound 0.3 µM): 21.2%
viability, T/C (second compound 3.16 µM, first compound 0.949 µM): 16.8%
viability, T/C (second compound 3.16 µM, first compound 3 µM): 10.5%
viability, T/C (second compound 10 µM, first compound 0.00949 µM): 33.3%
viability, T/C (second compound 10 µM, first compound 0.03 µM): 36%
viability, T/C (second compound 10 µM, first compound 0.0949 µM): 25.8%
viability, T/C (second compound 10 µM, first compound 0.3 µM): 23.6%
viability, T/C (second compound 10 µM, first compound 0.949 µM): 9.38%
viability, T/C (second compound 10 µM, first compound 3 µM): 6.34%
